Source: patent US7999137B2, “Pesticide bi-phenyl-amidine derivatives” (Bayer Cropscience AG, priority 2006, dated 2011)

Assay: logP by HPLC on reversed-phase column (C 18), EEC Directive 79/831 Annex V.A8
Format: physicochemical
Settings: 40° C., 0.1% aqueous formic acid and acetonitrile; for log p (HCOOH): HPLC reversed-phase C 18, linear gradient 10% to 90% acetonitrile
Description: Temperature: 40° C.; Mobile phases: 0.1% aqueous formic acid and acetonitrile; linear gradient from 10% acetonitrile to 90% acetonitrile.
Calibration was carried out using unbranched alkan-2-ones (comprising 3 to 16 carbon atoms) with known logP values (determination of the logP values by the retention times using linear interpolation between two successive alkanones).

log p (HCOOH) | chromatographic logP (reversed-phase HPLC column (C 18), pH 2.3, HPLC, read-out: log P (pH 2.3)) | Compound
1.89 |  | CCN(C)C=Nc1ccc(-c2ccc(F)c(F)c2)cc1C [Compound 34]
1.90 |  | CCc1cc(-c2ccc(OC)cc2)ccc1N=CN(C)CC [Compound 58]
2.32 |  | CCN(C)C=Nc1cc(C)c(-c2ccc(Cl)c(F)c2)cc1C [Compound 41]
2.00 |  | CCc1cc(-c2ccc(F)c(F)c2)ccc1N=CN(C)CC [Compound 56]
2.32 |  | CCN(C)C=Nc1cc(C)c(-c2ccc(F)c(F)c2F)cc1C [Compound 43]
2.20 |  | CCN(C)C=Nc1cc(C)c(-c2ccc(Br)cc2)cc1C [Compound 175]
2.60 |  | C=CCN(C)C=Nc1cc(C)c(-c2ccc(C(C)C)cc2)cc1C [Compound 157]
1.54 |  | CCN(C)C=Nc1ccc(-c2ccc(OC)c(OC)c2)cc1Cl [Compound 74]
1.95 |  | COc1ccc(-c2cc(OC)c(N=CN(C)C(C)C)cc2OC)cc1Cl [Compound 102]
2.45 |  | Cc1cc(-c2ccc(C(C)(C)C)cc2)ccc1N=C1CCCCN1 [Compound 138]
2.19 |  | CCc1cc(-c2ccc(C(C)=NOC)cc2)ccc1N=CN(C)CC [Compound 53]
2.34 |  | CCN(C)C=Nc1cc(C)c(-c2ccc(C(C)C)cc2)cc1C [Compound 155]
1.81 |  | Cc1cc(-c2ccc(F)cc2)c(C)cc1N=C1NCCCN1 [Compound 123]
2.10 |  | CCN(C)C=Nc1ccc(-c2ccc(F)c(C)c2)cc1Cl [Compound 67]
2.45 |  | CCN(C)C=Nc1ccc(-c2ccc(Oc3ccccc3)cc2)cc1Cl [Compound 71]
1.92 |  | CCN(C)C=Nc1ccc(-c2cccc(Cl)c2)c(Cl)c1 [Compound 96]
2.15 |  | CCN(C)C=Nc1cc(C)c(-c2cccc(Cl)c2)cc1C [Compound 133]
2.54 |  | CCN(C)C=Nc1ccc(-c2ccc(C(F)(F)F)cc2)cc1C(F)(F)F [Compound 25]
2.53 |  | Cc1cc(-c2ccc(C(C)(C)C)cc2)c(C)cc1N=CN1CCOCC1 [Compound 118]
3.18 |  | CCN(C)C=Nc1cc(C)c(-c2ccc(C[Si](C)(C)C)cc2)cc1C [Compound 166]
2.05 |  | CCN(C)C=Nc1cc(C)c(-c2ccc(C=NOC)cc2)cc1C [Compound 40]
2.44 |  | CCN(C)C=Nc1ccc(-c2ccc(C(C)(C)C)cc2)cc1Cl [Compound 1]

log p (HCOOH) | chromatographic logP (reversed-phase HPLC column (C 18), pH 2.3, HPLC, read-out: log P (pH 2.3)) | Compound
2.53 |  | Cc1cc(-c2ccc(C(C)(C)C)cc2)c(C)cc1N=C1CCCN1 [Compound 120]
2.22 |  | CCON=C(C)c1ccc(-c2cc(C)c(N=CN3CCCCC3)cc2C)cc1 [Compound 141]
2.01 |  | CCN(C)C=Nc1cc(C)c(-c2ccc(C)cc2)cc1C [Compound 131]
2.39 |  | CCc1cc(-c2ccc(OCc3ccccc3)cc2)ccc1N=CN(C)CC [Compound 60]
 | 3.65 | Cc1cc(-c2ccc(C(C)(C)C)cc2)c(C)cc1N [Intermediate (VII-1), 4′-tert-butyl-2,5-dimethylbiphenyl-4-amine]
2.32 |  | CCc1cc(-c2ccc(Oc3ccccc3)cc2)ccc1N=CN(C)CC [Compound 59]
2.83 |  | CCN(C)C=Nc1ccc(-c2ccc(C(C)(C)C)cc2)cc1C(F)(F)F [Compound 2]
2.37 |  | CCN(C)C=Nc1cc(C)c(-c2ccc(C)c(Cl)c2)cc1C [Compound 146]
2.09 |  | CCc1cc(-c2ccc(C=NOC)cc2)ccc1N=CN(C)CC [Compound 51]
2.70 |  | C=CCN(C)C=Nc1cc(C)c(-c2ccc(C(F)(F)F)c(Cl)c2)cc1C [Compound 144]
2.24 |  | CCN(C)C=Nc1cc(C)c(-c2ccc(Cl)cc2C)cc1C [Compound 112]
1.56 |  | CCN(C)C=Nc1ccc(-c2cc(OC)c(OC)c(OC)c2)cc1C [Compound 29]
1.98 |  | CCN(C)C=Nc1cc(C)c(-c2ccc(F)c(F)c2)cc1C [Compound 46]
2.00 |  | CCN(C)C=Nc1ccc(-c2ccc(C(C)=NOC)cc2)cc1Cl [Compound 65]
2.00 |  | CCN(C)C=Nc1ccc(-c2ccc(F)c(Cl)c2)cc1C [Compound 5]
1.87 |  | CCN(C)C=Nc1ccc(-c2ccc(C=NOC)cc2)cc1Cl [Compound 64]
1.76 |  | CCN(C)C=Nc1cc(C)c(-c2ccc(COC)cc2)cc1C [Compound 49]
2.27 |  | CCN(C)C=Nc1ccc(-c2ccc(OCc3ccccc3)cc2)cc1F [Compound 92]
1.83 |  | CCN(C)C=Nc1cc(OC)c(-c2ccc(OC)c(Cl)c2)cc1OC [Compound 97]
2.36 |  | CCN(C)C=Nc1ccc(-c2ccc(F)c(Cl)c2)cc1C(F)(F)F [Compound 4]
2.09 |  | CCN(C)C=Nc1ccc(-c2ccc(F)c(F)c2)cc1C(F)(F)F [Compound 83]
3.18 |  | CCN(C)C=Nc1cc(C)c(-c2ccc(C3CCCCC3)cc2)cc1C [Compound 165]

log p (HCOOH) | chromatographic logP (reversed-phase HPLC column (C 18), pH 2.3, HPLC, read-out: log P (pH 2.3)) | Compound
1.59 |  | CCN(C)C=Nc1ccc(-c2ccc(COC)cc2)cc1C [Compound 37]
2.25 |  | CCN(C)C=Nc1ccc(-c2ccc(Cl)c(Cl)c2)cc1Cl [Compound 66]
1.41 |  | CCN(C)C=Nc1ccc(-c2ccc(OC)c(OC)c2)cc1F [Compound 95]
2.37 |  | Cc1ccc(-c2cc(C)c(N=CN3CCCC3)cc2C)cc1Cl [Compound 150]
2.48 |  | C=CCN(C)C=Nc1cc(C)c(-c2ccc(C)c(Cl)c2)cc1C [Compound 148]
1.78 |  | CCN(C)C=Nc1ccc(-c2ccc(OC)cc2)cc1C(F)(F)F [Compound 87]
1.95 |  | CCN(C)C=Nc1cc(C)c(-c2ccc(F)cc2)cc1C [Compound 22]
2.55 |  | CCON=C(C)c1ccc(-c2cc(C)c(N=CN(C)CC)cc2C)cc1 [Compound 139]
3.16 |  | Cc1cc(-c2ccc([Si](C)(C)C)cc2)c(C)cc1N=CN1CCCCC1 [Compound 154]
2.40 |  | CCN(C)C=Nc1cc(C)c(-c2ccc(Cl)c(C(F)(F)F)c2)cc1C [Compound 17]
2.66 |  | CCc1cc(-c2ccc(C(C)(C)C)cc2)ccc1N=CN(C)CC [Compound 7]
1.67 |  | CCc1cc(-c2ccc(COC)cc2)ccc1N=CN(C)CC [Compound 61]
3.02 |  | Cc1cc(-c2ccc(C(C)(C)C)cc2)c(C)cc1N=CN1CCCCC1C (stereo not shown) [Compound 117]
2.69 |  | CCCN(C)C=Nc1cc(C)c(-c2ccc(C(F)(F)F)c(Cl)c2)cc1C [Compound 143]
2.43 |  | CCN(C)C=Nc1ccc(-c2ccc(OCc3ccccc3)cc2)cc1C(F)(F)F [Compound 91]
1.59 |  | CCN(C)C=Nc1ccc(-c2ccc(OC)cc2)cc1F [Compound 88]
2.56 |  | CCCN(C)C=Nc1cc(C)c(-c2ccc(C)c(Cl)c2)cc1C [Compound 147]
2.01 |  | COc1cc(-c2ccc(C)cc2)c(OC)cc1N=CN(C)C(C)C [Compound 103]
2.28 |  | CCN(C)C=Nc1ccc(-c2ccc(Cl)c(C(F)(F)F)c2)cc1C [Compound 16]
2.05 |  | CCN(C)C=Nc1ccc(-c2ccc(Cl)cc2Cl)cc1F [Compound 86]
